Experimental data taken from ChEMBL document CHEMBL3885861, “Open TG-GATES”.

Species on record: Rattus norvegicus
Test: Open TG-GATES - Regimen: Single
Assay type: toxicity, organism-based, Sprague-Dawley
Set-up: regimen Single, gender Male, age 6 weeks
Conditions: in vivo, po, route gavage; for TG / TP / gamma-GTP / ALT / AST / CRE / Ca / Cl / DBIL / GLC / K / LDH / Na / PL / RALB / TBIL / TC / ALP: tissue Plasma; for APTT / Bas / Eos / Fbg / Hb / Ht / Lym / MCHC / MCV / Mono / PT / Plat / RBC / WBC: tissue Blood; for KIDNEY_L / KIDNEY_R / KIDNEY_TOTAL: tissue Kidney; for LIVER: tissue Liver
[1] = 0 mg/kg, 24 h, dose level Control

## COc1ccc([C@@H]2Sc3ccccc3N(CCN(C)C)C(=O)[C@@H]2OC(C)=O)cc1 [DILTIAZEM]
[1]
  TG: 84.2 mg/dL
  TP: 5.4 g/dL
  gamma-GTP: 1 IU/L
80 mg/kg, 3 h, dose level Low
  TERMINAL_BW: 186.4 g
  APTT: 17.7 s
  Bas: 0.4%
  Eos: 0.2%
  Fbg: 282.2 mg/dL
  Hb: 12.8 g/dL
  Ht: 40%
  Lym: 70.8%
  MCHC: 32.1%
  MCV: 66.5 fL
  Mono: 3.4%
  PT: 14.7 s
  Plat: 124.6 x10_4/uL
  RBC: 601.8 x10_4/ul
  WBC: 115.4 x10_2/uL
  KIDNEY_L: 0.9 g
  KIDNEY_R: 0.8 g
  KIDNEY_TOTAL: 1.7 g
  LIVER: 8.4 g
  ALT: 50.8 IU/L
  AST: 85.6 IU/L
  CRE: 0.2 mg/dL
  Ca: 10.8 mg/dL
  Cl: 106.6 meq/L
  DBIL: 0.014 mg/dL
  GLC: 183.4 mg/dL
  K: 4.5 meq/L
  LDH: 74.8 IU/L
  Na: 142.2 meq/L
  PL: 134.8 mg/dL
  RALB: 2.5 g/dL
  TBIL: 0.032 mg/dL
  TC: 71.8 mg/dL
  TG: 60.2 mg/dL
  TP: 5.1 g/dL
  gamma-GTP: 1.2 IU/L
80 mg/kg, 6 h, dose level Low
  TERMINAL_BW: 182.6 g
  APTT: 17 s
  Bas: 0%
  Eos: 0.8%
  Fbg: 314.8 mg/dL
  Ht: 40.5%
  Lym: 71.2%
  MCHC: 32.4%
  MCV: 67 fL
  Mono: 4.2%
  PT: 14.7 s
  Plat: 131.5 x10_4/uL
  RBC: 606 x10_4/ul
  WBC: 91.6 x10_2/uL
  KIDNEY_L: 0.8 g
  KIDNEY_R: 0.8 g
  KIDNEY_TOTAL: 1.6 g
  LIVER: 7.9 g
  ALT: 42.4 IU/L
  AST: 72.8 IU/L
  CRE: 0.2 mg/dL
  Ca: 11.1 mg/dL
  Cl: 106.8 meq/L
  DBIL: 0.014 mg/dL
  GLC: 176.8 mg/dL
  K: 4.1 meq/L
  LDH: 54 IU/L
  Na: 143.8 meq/L
  PL: 137.4 mg/dL
  RALB: 2.5 g/dL
  TBIL: 0.034 mg/dL
  TC: 79 mg/dL
  TG: 33.4 mg/dL
  TP: 5.3 g/dL
  gamma-GTP: 1 IU/L
80 mg/kg, 9 h, dose level Low
  TERMINAL_BW: 181.8 g
  Bas: 0%
  Eos: 0.8%
  Fbg: 300.8 mg/dL
  Hb: 12.9 g/dL
  Ht: 40.2%
  Lym: 79.4%
  MCHC: 32.1%
  MCV: 66.7 fL
  Mono: 3%
  PT: 15.2 s
  Plat: 116.7 x10_4/uL
  RBC: 603.2 x10_4/ul
  WBC: 69.7 x10_2/uL
  KIDNEY_L: 0.9 g
  KIDNEY_R: 0.9 g
  KIDNEY_TOTAL: 1.7 g
  LIVER: 7.3 g
  ALP: 1382 IU/L
  ALT: 44 IU/L
  AST: 74.8 IU/L
  CRE: 0.1 mg/dL
  Ca: 10.7 mg/dL
  Cl: 105.8 meq/L
  DBIL: 0.016 mg/dL
  GLC: 176.8 mg/dL
  K: 4.1 meq/L
  LDH: 59.6 IU/L
  Na: 142 meq/L
  PL: 129.4 mg/dL
  RALB: 2.5 g/dL
  TBIL: 0.032 mg/dL
  TC: 69 mg/dL
  TG: 55.8 mg/dL
  TP: 5.1 g/dL
  gamma-GTP: 1 IU/L
80 mg/kg, 24 h, dose level Low
  TERMINAL_BW: 195.1 g
  Bas: 0%
  Eos: 1%
  Fbg: 257 mg/dL
  Hb: 13.3 g/dL
  Ht: 40.6%
  Lym: 75%
  MCHC: 32.8%
  MCV: 67 fL
  Mono: 3.2%
  PT: 14.5 s
  Plat: 121.8 x10_4/uL
  RBC: 606 x10_4/ul
  WBC: 83.3 x10_2/uL
  KIDNEY_L: 0.9 g
  KIDNEY_R: 0.9 g
  KIDNEY_TOTAL: 1.7 g
  LIVER: 9.3 g
  ALP: 1732.2 IU/L
  ALT: 49 IU/L
  AST: 77.4 IU/L
  CRE: 0.2 mg/dL
  Ca: 11.2 mg/dL
  Cl: 106.8 meq/L
  DBIL: 0.016 mg/dL
  GLC: 187.4 mg/dL
  K: 4.3 meq/L
  LDH: 82 IU/L
  Na: 144.2 meq/L
  PL: 146.4 mg/dL
  RALB: 2.6 g/dL
  TBIL: 0.032 mg/dL
